From the supplement of paper PMC10307832

Key:
Assay in all cases: relative viability (nuclei count vs DMSO), 5 days (fraction); higher = more cells survive
[1] = system: RERF-LC-KJ
Summary of the method: (§1)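 The day after seeding in 1536-well plates, lung cancer cell lines were treated by pin tool with a single drug, or with a fixed anchor-drug dose together with five library-drug doses (not always all listed) in √10 steps. After 5 days, a combined fix-and-stain solution (final 0.05% Triton X-100, 1% formaldehyde, 1 ug/ml Hoechst) was added. Nuclei counted on 4× images gave relative viability as treated counts over vehicle counts, reported as the median of duplicate plates.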

[2] = system: LOU-NH91
Summary of the method: as §1

[3] = system: NCI-H1792
Summary of the method: as §1

[4] = system: NCI-H358
Summary of the method: as §1

[5] = system: HCC-78
Summary of the method: as §1

[6] = system: LCLC-97TM1
Summary of the method: as §1

[7] = system: LU99A
Summary of the method: as §1

[8] = system: NCI-H727
Summary of the method: as §1

[9] = system: EKVX
Summary of the method: as §1

[10] = system: BEN
Summary of the method: as §1

[11] = system: EMC-BAC-2
Summary of the method: as §1

[12] = system: NCI-H1944
Summary of the method: as §1

[13] = system: LK-2
Summary of the method: as §1

[14] = system: HCC-827
Summary of the method: as §1

[15] = system: NCI-H1734
Summary of the method: as §1

[16] = system: ChaGo-K-1
Summary of the method: as §1

[17] = system: NCI-H2126
Summary of the method: as §1

[18] = system: EPLC-272H
Summary of the method: as §1

[19] = system: NCI-H2087
Summary of the method: as §1

In the case of `O=c1[nH]c2ccccc2n1C1CCN(CCCC(c2ccc(F)cc2)c2ccc(F)cc2)CC1` [Pimozide] + NC(=O)Nc1cc(-c2cccc(F)c2)sc1C(=O)N[C@H]1CCCNC1 [AZD7762] (partner 0.2 µM), the relative viability ([1]; first compound 0.08 µM) is reported as 0.91, the relative viability ([1]; first compound 0.253 µM) is reported as 0.866 and the relative viability ([1]; first compound 0.8 µM) is reported as 0.806. It also gave a relative viability ([1]; first compound 2.53 µM) of 0.757, a relative viability ([1]; first compound 8 µM) of 0.81 and a relative viability ([2]; first compound 0.08 µM) of 0.713. The relative viability ([2]; first compound 0.253 µM) was 0.746, the relative viability ([2]; first compound 0.8 µM) was 0.776 and the relative viability ([2]; first compound 2.53 µM) was 0.778. It also gave a relative viability ([2]; first compound 8 µM) of 0.778, a relative viability ([3]; first compound 0.08 µM) of 0.793 and a relative viability ([3]; first compound 0.253 µM) of 0.733. For the same compound, the relative viability ([3]; first compound 0.8 µM) was 0.679, the relative viability ([3]; first compound 2.53 µM) was 0.748 and the relative viability ([3]; first compound 8 µM) was 0.5. The relative viability ([4]; first compound 0.08 µM) was 0.565, the relative viability ([4]; first compound 0.253 µM) was 0.67 and the relative viability ([4]; first compound 0.8 µM) was 0.625. For the same compound, the relative viability ([4]; first compound 2.53 µM) was 0.508, the relative viability ([4]; first compound 8 µM) was 0.505 and the relative viability ([5]; first compound 0.08 µM) was 0.547. The relative viability ([5]; first compound 0.8 µM) was 0.607, the relative viability ([5]; first compound 2.53 µM) was 0.55 and the relative viability ([5]; first compound 8 µM) was 0.6. For the same compound, the relative viability ([6]; first compound 0.08 µM) was 0.363, the relative viability ([6]; first compound 0.253 µM) was 0.23 and the relative viability ([6]; first compound 0.8 µM) was 0.171. The relative viability ([6]; first compound 2.53 µM) was 0.246, the relative viability ([6]; first compound 8 µM) was 0.376 and the relative viability ([7]; first compound 0.08 µM) was 0.399. It also gave a relative viability ([7]; first compound 0.8 µM) of 0.333, a relative viability ([7]; first compound 2.53 µM) of 0.31 and a relative viability ([7]; first compound 8 µM) of 0.398. The relative viability ([8]; first compound 0.08 µM) was 0.496, the relative viability ([8]; first compound 0.253 µM) was 0.581 and the relative viability ([8]; first compound 0.8 µM) was 0.596. The relative viability ([8]; first compound 2.53 µM) was 0.613, the relative viability ([8]; first compound 8 µM) was 0.525 and the relative viability ([9]; first compound 0.253 µM) was 0.711. It also gave a relative viability ([9]; first compound 0.8 µM) of 0.618, a relative viability ([9]; first compound 2.53 µM) of 0.749 and a relative viability ([9]; first compound 8 µM) of 0.592. For the same compound, the relative viability ([10]; first compound 0.08 µM) was 0.762, the relative viability ([10]; first compound 0.253 µM) was 0.753 and the relative viability ([10]; first compound 0.8 µM) was 0.618. For the same compound, the relative viability ([10]; first compound 2.53 µM) was 0.713, the relative viability ([10]; first compound 8 µM) was 0.886 and the relative viability ([11]; first compound 0.08 µM) was 1.06. The relative viability ([11]; first compound 0.253 µM) was 1.03, the relative viability ([11]; first compound 0.8 µM) was 1 and the relative viability ([11]; first compound 2.53 µM) was 1.09. It also gave a relative viability ([11]; first compound 8 µM) of 1, a relative viability ([12]; first compound 0.08 µM) of 0.659 and a relative viability ([12]; first compound 2.53 µM) of 0.443. It also gave a relative viability ([12]; first compound 8 µM) of 0.524, a relative viability ([13]; first compound 0.08 µM) of 0.539 and a relative viability ([13]; first compound 0.253 µM) of 0.438. For the same compound, the relative viability ([13]; first compound 0.8 µM) was 0.376, the relative viability ([13]; first compound 8 µM) was 0.417 and the relative viability ([14]; first compound 0.253 µM) was 0.2. For the same compound, the relative viability ([14]; first compound 0.8 µM) was 0.211, the relative viability ([14]; first compound 2.53 µM) was 0.236 and the relative viability ([14]; first compound 8 µM) was 0.28. The relative viability ([15]; first compound 0.08 µM) was 0.573, the relative viability ([15]; first compound 0.253 µM) was 0.558 and the relative viability ([15]; first compound 0.8 µM) was 0.487. For the same compound, the relative viability ([15]; first compound 2.53 µM) was 0.511, the relative viability ([15]; first compound 8 µM) was 0.485 and the relative viability ([16]; first compound 0.08 µM) was 0.914. The relative viability ([16]; first compound 0.253 µM) was 0.871, the relative viability ([16]; first compound 0.8 µM) was 0.88 and the relative viability ([16]; first compound 2.53 µM) was 0.803. For the same compound, the relative viability ([16]; first compound 8 µM) was 0.824, the relative viability ([17]; first compound 0.08 µM) was 1.02 and the relative viability ([17]; first compound 0.253 µM) was 1.06. For the same compound, the relative viability ([17]; first compound 0.8 µM) was 1.01, the relative viability ([17]; first compound 2.53 µM) was 1.02 and the relative viability ([17]; first compound 8 µM) was 1. It also gave a relative viability ([18]; first compound 0.08 µM) of 0.229, a relative viability ([18]; first compound 0.253 µM) of 0.163 and a relative viability ([18]; first compound 0.8 µM) of 0.265. The relative viability ([18]; first compound 2.53 µM) was 0.289, the relative viability ([18]; first compound 8 µM) was 0.282 and the relative viability ([19]; first compound 0.08 µM) was 1.27. For the same compound, the relative viability ([19]; first compound 0.253 µM) was 1.31, the relative viability ([19]; first compound 2.53 µM) was 1.22 and the relative viability ([19]; first compound 8 µM) was 1.25.
